US20100216779A1 (GLAXOSMITHKLINE LLC, priority 2007, published 2010)

Experiments:
Type in all cases: cell-based
[1] = molecular target: T1, human IGF-1R (NIH-3T3 cells over expressing human IGF-1R) (Homo sapiens, UniProt P08069); assay: IGF-1R cellular autophosphorylation (DELFIA); details: IGF-1 stimulated
T1 construct: expressed in transfected cells; host or cells: NIH-3T3 (mouse fibroblasts)
Procedure: (§1) D. IGF-1R and IR Cellular Autophosphorylation (DELFIA)
(§2) NIH-3T3 cells over expressing human IGF-1R or IR were plated in 96-well plates (10,000 cells/well) in culture media containing 10% fetal bovine serum and incubated at 37° C. in a 5% CO2 incubator. Twenty four hours post-plating, cells were treated with different concentrations of test compounds ranging from 30 uM to 1.5 nM. Two hours after compound addition, cells were stimulated with either human IGF-1 (30 ng/mL) or insulin (3 ug/mL) for 15 minutes. Cell lysates are analyzed for phosphorylated receptors using dissociation enhanced lanthanide fluor-immuno assay (DELFIA) with anti-IGF-1R (MAB391, R&D Systems, Minneapolis, Minn.) or anti-IR[…](sc-711, Santa Cruz Biotechnology, Santa Cruz, Calif.) capture antibody and europium-labeled anti-pTyr antibody (Eu-N1 PT66, Perkin Elmer, Waltham, Mass.) for detection. The fluorescence signal for cells treated with compounds was expressed as percent relative to 100% stimulation (IGF-1 or insulin stimulated signal). […]

COLO205 (colon) = assay: Inhibition of cell proliferation, CellTiter-Glo, COLO205; details: Homo sapiens, COLO 205, 72 h
Procedure: C. Inhibition of Cell Proliferation
Cell proliferation was measured by either CellTiter-Glo (measures cellular ATP level as a surrogate for total cell number) or by InCell analyzer (counts number of nuclei as a measure of cell number). For CellTiter-Glo assay, exponentially growing cell lines of different tumor origins, cultured in appropriate media containing 10% fetal bovine serum at 37° C. in a 5% CO2 incubator, were plated at low density (less than 2000 cells/well) in 96-well plates. […] Several wells were left untreated as a control. Seventy two hours post-treatment, cell numbers were determined using 50-100 ul per well of CellTiter-Glo (Promega #G7573). Plates were incubated at 37° C. for 30 minutes and the chemiluminescent signal was read on the Victor V or Envison 2100 reader. […]

[2] = molecular target: T2, IR (NIH-3T3 cells over expressing human IGF-1R or IR) (Homo sapiens, UniProt P06213); assay: IR cellular autophosphorylation (DELFIA); details: NIH-3T3 cells over expressing IR, insulin stimulated
T2 construct: expressed in transfected cells; host or cells: NIH-3T3 (mouse fibroblasts)
T2 sequence (P06213 28-1382): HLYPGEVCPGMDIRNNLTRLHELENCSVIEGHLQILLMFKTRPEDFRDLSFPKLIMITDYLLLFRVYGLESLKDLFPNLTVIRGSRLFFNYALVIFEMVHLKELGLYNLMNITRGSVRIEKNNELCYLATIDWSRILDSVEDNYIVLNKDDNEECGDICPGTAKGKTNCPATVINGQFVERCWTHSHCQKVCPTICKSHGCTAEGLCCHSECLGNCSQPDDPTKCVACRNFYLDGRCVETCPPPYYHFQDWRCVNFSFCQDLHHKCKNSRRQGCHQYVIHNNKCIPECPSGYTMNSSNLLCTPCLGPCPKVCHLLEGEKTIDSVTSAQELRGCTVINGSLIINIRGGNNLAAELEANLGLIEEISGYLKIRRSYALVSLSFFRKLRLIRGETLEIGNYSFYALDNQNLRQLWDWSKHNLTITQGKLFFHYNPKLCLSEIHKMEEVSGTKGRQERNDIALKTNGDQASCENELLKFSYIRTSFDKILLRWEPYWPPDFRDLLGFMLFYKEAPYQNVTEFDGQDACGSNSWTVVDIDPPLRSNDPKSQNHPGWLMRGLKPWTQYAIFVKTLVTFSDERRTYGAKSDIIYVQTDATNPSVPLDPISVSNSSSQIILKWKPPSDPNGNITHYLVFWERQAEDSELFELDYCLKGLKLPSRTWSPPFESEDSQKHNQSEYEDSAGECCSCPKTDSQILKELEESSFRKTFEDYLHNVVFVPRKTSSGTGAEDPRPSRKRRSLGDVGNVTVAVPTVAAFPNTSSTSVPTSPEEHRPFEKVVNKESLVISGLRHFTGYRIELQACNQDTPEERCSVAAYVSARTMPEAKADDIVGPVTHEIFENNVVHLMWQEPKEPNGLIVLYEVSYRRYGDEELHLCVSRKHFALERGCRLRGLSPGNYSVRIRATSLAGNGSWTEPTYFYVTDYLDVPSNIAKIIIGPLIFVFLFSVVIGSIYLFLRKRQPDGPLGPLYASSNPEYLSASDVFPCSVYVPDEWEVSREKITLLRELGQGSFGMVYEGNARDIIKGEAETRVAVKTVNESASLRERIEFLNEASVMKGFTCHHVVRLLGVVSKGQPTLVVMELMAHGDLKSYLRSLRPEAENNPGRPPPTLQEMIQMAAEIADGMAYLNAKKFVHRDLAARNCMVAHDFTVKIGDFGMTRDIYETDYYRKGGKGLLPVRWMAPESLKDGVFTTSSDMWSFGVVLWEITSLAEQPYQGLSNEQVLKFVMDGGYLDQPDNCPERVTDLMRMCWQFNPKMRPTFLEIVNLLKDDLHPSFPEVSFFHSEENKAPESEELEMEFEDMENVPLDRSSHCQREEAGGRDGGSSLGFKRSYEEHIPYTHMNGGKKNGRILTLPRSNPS
Procedure: as §1, §2

T1 sequence (P08069 31-1367): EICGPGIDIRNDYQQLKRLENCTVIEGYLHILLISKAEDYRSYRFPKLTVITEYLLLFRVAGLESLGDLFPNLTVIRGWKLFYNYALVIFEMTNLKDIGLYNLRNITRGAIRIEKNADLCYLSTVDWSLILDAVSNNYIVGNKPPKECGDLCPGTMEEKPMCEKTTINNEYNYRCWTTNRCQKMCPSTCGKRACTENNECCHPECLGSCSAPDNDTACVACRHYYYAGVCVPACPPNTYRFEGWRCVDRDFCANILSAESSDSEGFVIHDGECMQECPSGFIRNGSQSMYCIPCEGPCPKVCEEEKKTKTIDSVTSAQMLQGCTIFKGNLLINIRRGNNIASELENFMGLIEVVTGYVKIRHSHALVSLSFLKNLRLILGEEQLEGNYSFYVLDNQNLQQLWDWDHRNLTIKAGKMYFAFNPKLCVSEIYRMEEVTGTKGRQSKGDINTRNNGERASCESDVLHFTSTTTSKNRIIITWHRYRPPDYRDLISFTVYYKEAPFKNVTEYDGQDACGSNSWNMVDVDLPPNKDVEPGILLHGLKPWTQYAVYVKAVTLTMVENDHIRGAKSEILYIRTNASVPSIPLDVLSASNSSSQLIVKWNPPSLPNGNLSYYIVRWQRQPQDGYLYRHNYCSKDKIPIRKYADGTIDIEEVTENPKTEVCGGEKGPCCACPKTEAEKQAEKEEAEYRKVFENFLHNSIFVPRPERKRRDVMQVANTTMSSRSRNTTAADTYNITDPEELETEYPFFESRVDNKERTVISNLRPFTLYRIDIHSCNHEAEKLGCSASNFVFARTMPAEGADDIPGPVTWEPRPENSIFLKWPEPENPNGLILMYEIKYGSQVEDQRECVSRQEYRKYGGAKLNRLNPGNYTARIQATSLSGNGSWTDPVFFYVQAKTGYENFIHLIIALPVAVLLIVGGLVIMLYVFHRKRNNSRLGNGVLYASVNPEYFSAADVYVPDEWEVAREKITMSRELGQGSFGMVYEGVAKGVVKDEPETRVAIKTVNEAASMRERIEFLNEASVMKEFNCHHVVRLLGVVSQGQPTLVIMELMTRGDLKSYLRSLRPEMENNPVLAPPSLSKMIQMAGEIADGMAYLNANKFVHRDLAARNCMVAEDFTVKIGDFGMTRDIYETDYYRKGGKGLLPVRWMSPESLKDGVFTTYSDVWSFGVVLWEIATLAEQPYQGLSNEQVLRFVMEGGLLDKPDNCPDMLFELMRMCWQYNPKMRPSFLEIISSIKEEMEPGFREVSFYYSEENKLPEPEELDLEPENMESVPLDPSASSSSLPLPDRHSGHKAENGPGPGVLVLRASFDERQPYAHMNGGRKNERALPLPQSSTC

SMILES | IC50 [1] | IC50 (COLO205 (colon)) | IC50 [2]
CCCOc1cc(N2CCC(N3CCCCC3)CC2)ccc1Nc1nccc(-c2c(-c3cccc(C(=O)Nc4c(F)cccc4F)c3)nc3ccccn23)n1 [Example 33, 3-[3-(2-{[4-(1,4′-bipiperidin-1′-yl)-2-(propyloxy)phenyl]amino}-4-pyrimidinyl)imidazol[1,2-a]pyridin-2-yl]-N-(2,6-difluorophenyl)benzamide] | < 100 nM | 250 to 1000 nM | 100 to 500 nM
CCOc1cc(N2CCN(C3CCN(CCF)CC3)CC2)ccc1Nc1nccc(-c2c(-c3cccc(C(=O)Nc4c(F)cccc4F)c3)nc3ccccn23)n1 [Example 91, N-(2,6-difluorophenyl)-3-(3-{2-[(2-(ethyloxy)-4-{4-[1-(2-fluoroethyl)-4-piperidinyl]-1-piperazinyl}phenyl)amino]-4-pyrimidinyl}imidazo[1,2-a]pyridin-2-yl)benzamide] | < 100 nM | 250 to 1000 nM | < 100 nM
COc1cc(N2CCC(CN3CCCCC3)CC2)ccc1Nc1nccc(-c2c(-c3cccc(C(=O)Nc4c(F)cccc4F)c3)nc3ccccn23)n1 [Example 36, N-(2,6-difluorophenyl)-3-{3-[2-({2-(methyloxy)-4-[4-(1-piperidinylmethyl)-1-piperidinyl]phenyl}amino)-4-pyrimidinyl]imidazo[1,2-a]pyridin-2-yl}benzamide] | < 100 nM | 250 to 1000 nM | < 100 nM
COc1ccn2c(-c3ccnc(Nc4ccc(N5CCC(N6CCCCC6)CC5)cc4OC)n3)c(-c3ccc(OC)c(C(=O)Nc4c(F)cccc4F)c3)nc2c1 [Example 5, 5-[3-(2-{[4-(1,4′-bipiperidin-1′-yl)-2-(methyloxy)phenyl]amino}-4-pyrimidinyl)-7-(methyloxy)imidazo[1,2-a]pyridin-2-yl]-N-(2,6-difluorophenyl)-2-(methyloxy)benzamide] | < 100 nM | > 1000 nM | < 100 nM
COc1cc(-c2nnc(CN(C)C)o2)ccc1Nc1nccc(-c2c(-c3ccc(OC)c(C(=O)Nc4c(F)cccc4F)c3)nc3ccccn23)n1 [Example 26, N-(2,6-difluorophenyl)-5-[3-(2-{[4-{5-[(dimethylamino)methyl]-1,3,4-oxadiazol-2-yl}-2-(methyloxy)phenyl]amino}-4-pyrimidinyl)imidazo[1,2-a]pyridin-2-yl]-2-(methyloxy)benzamide] | < 100 nM | 250 to 1000 nM | > 500 nM
COc1cc(N2CCC(N3CCC(O)CC3)CC2)ccc1Nc1nccc(-c2c(-c3ccc(OC)c(C(=O)Nc4c(F)cccc4F)c3)nc3ccccn23)n1 [Example 81, N-(2,6-difluorophenyl)-5-[3-(2-{[4-(4-hydroxy-1,4′-bipiperidin-1′-yl)-2-(methyloxy)phenyl]-amino}-4-pyrimidinyl)imidazo[1,2-a]pyridin-2-yl]-2-(methyloxy)benzamide] | < 100 nM | < 250 nM | < 100 nM
CC(C)Oc1cc(N2CCC(N3CCCCC3)CC2)ccc1Nc1nccc(-c2c(-c3cccc(C(=O)Nc4c(F)cccc4F)c3)nc3ccccn23)n1 [Example 35, 3-{3-[2-({4-(1,4′-bipiperidin-1′-yl)-2-[(1-methylethyl)oxy]phenyl}amino)-4-pyrimidinyl]imidazo[1,2-a]pyridin-2-yl}-N-(2,6-difluorophenyl)benzamide] | 100 to 500 nM | 250 to 1000 nM | 100 to 500 nM
Cc1cc(OC2CCN(C)CC2)ccc1Nc1nccc(-c2c(-c3cccc(C(=O)Nc4c(F)cccc4F)c3)nc3ccccn23)n1 [Example 7, N-(2,6-difluorophenyl)-3-{3-[2-({2-methyl-4-[(1-methyl-4-piperidinyl)oxy]phenyl}amino)-4-pyrimidinyl]imidazo[1,2-a]pyridin-2-yl}benzamide] | < 100 nM |  | > 500 nM
COc1cc(N2CCC(N3CCN(CCF)CC3)CC2)c(Cl)cc1Nc1nccc(-c2c(-c3cccc(C(=O)Nc4c(F)cccc4F)c3)nc3ccccn23)n1 [Example 112, 3-[3-(2-{[5-chloro-4-{4-[4-(2-fluoroethyl)-1-piperazinyl]-1-piperidinyl}-2-(methyloxy)phenyl]amino}-4-pyrimidinyl)imidazo[1,2-a]pyridin-2-yl]-N-(2,6-difluorophenyl)benzamide] | < 100 nM |  | < 100 nM
COc1cc(N2CCC(N3CCCCC3)CC2)c(C)cc1Nc1nccc(-c2c(-c3cccc(C(=O)Nc4c(F)cccc4F)c3)nc3ccccn23)n1 [Example 108, 3-[3-(2-{[4-(1,4′-bipiperidin-1′-yl)-5-methyl-2-(methyloxy)phenyl]amino]-4-pyrimidinyl)imidazo[1,2-a]pyridin-2-yl]-N-(2,6-difluorophenyl)benzamide] | < 100 nM |  | < 100 nM

Other lines, results leading:

IC50 [1] | IC50 (COLO205 (colon)) | IC50 [2] | SMILES
< 100 nM | < 250 nM | < 100 nM | COc1cc(N2CCC(N3CCCCC3)CC2)c(C)cc1Nc1nccc(-c2c(-c3ccc(OC)c(C(=O)Nc4c(F)cccc4F)c3)nc3ccccn23)n1 [Example 109, 5-[3-(2-{[4-(1,4′-bipiperidin-1′-yl)-5-methyl-2-(methyloxy)phenyl]amino]-4-pyrimidinyl)imidazo[1,2-a]pyridin-2-yl]-N-(2,6-difluorophenyl)-2-(methyloxy)benzamide]
< 100 nM | 250 to 1000 nM | 100 to 500 nM | COc1cc(N2CCC[C@@H](O)C2)ccc1Nc1nccc(-c2c(-c3cccc(C(=O)Nc4c(F)cccc4F)c3)nc3ccccn23)n1 [Example 170, N-(2,6-difluorophenyl)-3-[3-(2-{[4-[(3R)-3-hydroxy-1-piperidinyl]-2-(methyloxy)phenyl]amino}-4-pyrimidinyl)imidazo[1,2-a]pyridin-2-yl]benzamide]
< 100 nM | 250 to 1000 nM | 100 to 500 nM | COc1cc(N2CCC(N3CCCCC3)CC2)ccc1Nc1nccc(-c2c(-c3cccc(C(=O)Nc4ccc(F)cc4Cl)c3)nc3ccccn23)n1 [Example 44, 3-[3-(2-{[4-(1,4′-bipiperidin-1′-yl)-2-(methyloxy)phenyl]amino}-4-pyrimidinyl)imidazo[1,2-a]pyridin-2-yl]-N-(2-chloro-4-fluorophenyl)benzamide]
< 100 nM | 250 to 1000 nM | 100 to 500 nM | Cc1cc(N2CCC(N3CCCCC3)CC2)ccc1Nc1nccc(-c2c(-c3cccc(C(=O)Nc4c(F)cccc4F)c3)nc3ccccn23)n1 [Example 53, 3-[3-(2-{[4-(1,4′-bipiperidin-1′-yl)-2-methylphenyl]amino}-4-pyrimidinyl)imidazo[1,2-a]pyridin-2-yl]-N-(2,6-difluorophenyl)benzamide]
< 100 nM |  | 100 to 500 nM | Cc1cc(OC2CCN(CCS(C)(=O)=O)CC2)ccc1Nc1nccc(-c2c(-c3cccc(C(=O)Nc4c(F)cccc4F)c3)nc3ccccn23)n1 [Example 8, N-(2,6-difluorophenyl)-3-[3-(2-{[2-methyl-4-({1-[2-(methylsulfonyl)ethyl]-4-piperidinyl}oxy)phenyl]amino}-4-pyrimidinyl)imidazo[1,2-a]pyridin-2-yl]benzamide]
100 to 500 nM |  | > 500 nM | Cc1cc(OC2CCNCC2)ccc1Nc1nccc(-c2c(-c3cccc(C(=O)Nc4c(F)cccc4F)c3)nc3ccccn23)n1 [Example 6, N-(2,6-difluorophenyl)-3-[3-(2-{[2-methyl-4-(4-piperidinyloxy)phenyl]amino}-4-pyrimidinyl)imidazo[1,2-a]pyridin-2-yl]benzamide]
